In patent US7829296B2, “Kinesin polypeptides, polynucleotides encoding same and compositions and methods of using same” (Ramot at Tel-Aviv University Ltd., priority 2005, dated 2010):

Experiments:
ERK1/2 in MBA-15 cells [1] = assay: Estrogen signaling, ERK1/2 pathway: Western blot for pERK1/2 on whole cell lysates; type: cell-based; settings: FIG. 16A; for 17βE2-induced increase of pERK1/2 after pretreatment: then 10^−8M 17β-estrogen five minutes
Procedure: Western blot analysis and Immunoprecipitation: Cells were harvested from cultures, washed twice with ice-cold PBS and collected in presence of protease inhibitors (Phenylmethylsulfonyl fluoride PMSF, 1 mM; 1-Chloro-3-tosylamido-4-phenyl-2-butanone, TPCK, 10 μg/ml; Aprotinin, 10 μg/ml (Sigma, USA) and phosphatase inhibitor cocktails I and II (Sigma, USA). Samples were spun down at 1500 rpm for 4 minutes and pellets were reconstituted in lyses buffer (50 mM Tris pH 7.5, 150 mM NaCl, 1% NP-40, and protease and phosphatase inhibitors, as above). Following a 20 minute incubation at 4° C., samples were centrifuged at 16,000 g for 5 minutes.
(§1) For Western blot, the membranes were blocked with 5% BSA in TBST (50 mM Tris, pH-7.5, 150 mM NaCl, 0.1% Tween-20, Sigma, USA) for 1 hour at RT or overnight and than incubated with anti-MS-KIF18A. The membranes were washed with TBST and incubated with goat anti-rabbit or goat anti-mouse conjugated to biotin (Dako, Denmark) for 40 minutes at RT and Extravidin-Peroxidase (Sigma, USA) for detection with chemiluminescent substrate (Pierce, USA).
(§2) Estrogen signaling, ERK1/2 pathway: MBA-15 cells were maintained in medium supplemented with 3% charcoal striped FCS for 48 hours prior to the start of the experiment. On the day of the experiment, the cells were pretreated with 25 μM MAPK inhibitor, PD98059 (Calbiochem, USA) and an estrogen antagonist ICI 182,780 10^−6M (Tocris, USA) for 45 minutes. 10^−8M 17β-estrogen (Sigma, USA) was added for five minutes. Cell lysates were used for immunoprecipitation and analyzed by Western blot.
(§3) Immunoprecipitation, Western blot, SDS-PADE gel: All experiments were performed as described in Example 1. Primary antibodies included anti-MS-KIF18A, anti-ER antibodies (Upstate Biotechnologies, USA) or SRA-1010 (Stressgen, Canada), anti-ERK1/2, pERK1/2 (Sigma, USA) or anti-His-tag (Santa Cruz Biotechnologies, USA). For detection a secondary antibody conjugated to biotin-extravidine-peroxidase and chemiluminescent substrate was used (Pierce, USA).

ERK1/2 in MBA-15 cells [2] = assay: pERK1/2 in anti-MS-KIF18A immunoprecipitates (MS-KIF18A-ERα complex), Western blot; type: cell-based; settings: for ERK activation in anti-MS-KIF18A immunoprecipitate after pretreatment: then 17β-estrogen
Procedure: (§4) For immunoprecipitation (IP), anti-MS-KIF18A and protein-A sepharose beads (Sigma, USA) were added to lysates and samples were incubated overnight at 4° C. Immunocomplexes were precipitated at 16,000 g for 1 minute and washed 4 times with lyses buffer. The washed beads were re-suspended in Lamelli sample buffer and boiled for 3 minutes. The proteins were separated on 8% SDS-PAGE gel for 2 hours and transferred to nitrocellulose for 1.5 hours.
as §1, §2, §3

ERα 66 kDa = molecular target: T1, ERα 66 kDa (Homo sapiens, UniProt P03372); assay: Co-immunoprecipitation of co-transfected His-MS-KIF18A and ERα 66 kDa in COS-7 cells; type: binding; settings: COS-7 cells co-transfected with His-MS-KIF18A and ERα 66 kDa, FIGS. 14A-B
T1 construct: expressed in transfected cells; host or cells: COS-7
T1 sequence (P03372 1-595): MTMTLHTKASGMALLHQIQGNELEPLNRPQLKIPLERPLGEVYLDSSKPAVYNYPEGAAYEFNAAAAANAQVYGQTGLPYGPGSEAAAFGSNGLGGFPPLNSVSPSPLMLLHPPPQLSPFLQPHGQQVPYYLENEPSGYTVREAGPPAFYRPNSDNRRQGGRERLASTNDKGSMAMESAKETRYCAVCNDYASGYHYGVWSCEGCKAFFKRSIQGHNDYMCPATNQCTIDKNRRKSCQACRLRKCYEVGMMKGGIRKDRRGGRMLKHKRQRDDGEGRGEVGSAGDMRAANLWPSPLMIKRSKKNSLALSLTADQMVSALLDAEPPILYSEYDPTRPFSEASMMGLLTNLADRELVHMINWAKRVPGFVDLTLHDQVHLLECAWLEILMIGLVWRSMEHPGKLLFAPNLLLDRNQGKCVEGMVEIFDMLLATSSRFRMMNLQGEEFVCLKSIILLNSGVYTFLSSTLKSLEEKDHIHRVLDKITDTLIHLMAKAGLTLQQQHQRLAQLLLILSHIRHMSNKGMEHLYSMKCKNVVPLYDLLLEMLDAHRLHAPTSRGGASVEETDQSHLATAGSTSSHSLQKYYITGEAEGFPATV
T1 sequence (Q8NI77 1-898 I735V partner): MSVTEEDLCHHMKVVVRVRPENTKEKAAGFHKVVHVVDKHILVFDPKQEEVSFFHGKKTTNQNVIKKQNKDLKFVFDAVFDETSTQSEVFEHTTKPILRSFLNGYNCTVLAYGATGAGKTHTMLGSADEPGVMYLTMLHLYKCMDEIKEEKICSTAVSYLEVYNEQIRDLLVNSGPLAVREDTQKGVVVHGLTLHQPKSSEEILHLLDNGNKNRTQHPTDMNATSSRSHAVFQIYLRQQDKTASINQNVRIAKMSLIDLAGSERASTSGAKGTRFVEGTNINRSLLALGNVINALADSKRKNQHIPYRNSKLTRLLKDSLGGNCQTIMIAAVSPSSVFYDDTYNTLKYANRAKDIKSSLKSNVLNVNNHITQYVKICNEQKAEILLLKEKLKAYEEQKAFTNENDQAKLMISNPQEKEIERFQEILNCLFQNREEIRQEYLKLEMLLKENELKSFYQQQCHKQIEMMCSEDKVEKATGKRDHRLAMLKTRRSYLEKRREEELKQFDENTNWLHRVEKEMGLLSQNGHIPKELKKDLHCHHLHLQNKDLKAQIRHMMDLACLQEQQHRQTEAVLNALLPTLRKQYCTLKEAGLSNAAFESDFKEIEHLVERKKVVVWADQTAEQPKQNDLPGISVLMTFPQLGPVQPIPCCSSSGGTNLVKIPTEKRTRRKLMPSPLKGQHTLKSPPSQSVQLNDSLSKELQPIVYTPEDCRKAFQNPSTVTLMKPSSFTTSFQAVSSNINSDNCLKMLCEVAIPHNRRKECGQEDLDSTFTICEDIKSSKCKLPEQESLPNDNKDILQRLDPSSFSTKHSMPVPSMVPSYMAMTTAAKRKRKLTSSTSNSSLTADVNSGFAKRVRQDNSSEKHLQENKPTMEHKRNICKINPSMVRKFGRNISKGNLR
Procedure: as §4, §1
as §3, with “(Pierce, USA). […]” for “(Pierce, USA).”

ERα = assay: Co-immunoprecipitation of endogenous MS-KIF18A and ERα in MBA-15 cells; type: binding; settings: MBA-15 cell lysates, antibodies directed against MS-KIF18A, FIG. 15
Procedure: as §4, §1, §3

Molecule: 17β-estrogen [17βE2]
- pERK1/2 following 17βE2 stimulation (ERK1/2 in MBA-15 cells [1]; 10^−8M 17β-estrogen for five minutes): increase
- activated ERK in anti-MS-KIF18A immunoprecipitate following estrogen treatment (ERK1/2 in MBA-15 cells [2]; 10^−8M 17β-estrogen five minutes, FIG. 16D lane 4): increase in activated ERK

Molecule: C[C@]12CC[C@@H]3c4ccc(O)cc4C[C@@H](CCCCCCCCC[S+]([O-])CCCC(F)(F)C(F)(F)F)[C@H]3[C@@H]1CC[C@@H]2O (some centres unmarked) [ICI 182,780]
- 17βE2-induced increase of pERK1/2 after pretreatment (ERK1/2 in MBA-15 cells [1]; pretreated with ICI 182,780 10^−6M for 45 minutes): inhibited
- ERK activation in anti-MS-KIF18A immunoprecipitate after pretreatment (ERK1/2 in MBA-15 cells [2]; pretreated with ICI 182,780 10^−6M 45 minutes, FIG. 16D lane 3, FIG. 16E): reduced ERK activation

Molecule: COc1cccc(-c2cc(=O)c3ccccc3o2)c1N [PD98059]
- 17βE2-induced increase of pERK1/2 after pretreatment (ERK1/2 in MBA-15 cells [1]; pretreated with 25 μM PD98059 for 45 minutes): inhibited
- ERK activation in anti-MS-KIF18A immunoprecipitate after pretreatment (ERK1/2 in MBA-15 cells [2]; pretreated with 25 μM PD98059 45 minutes, FIG. 16D lane 2, FIG. 16E): reduced ERK activation

B1: His-MS-KIF18A: His-tagged MS-KIF18A expressed from pcDNA3.1-His-C-MS-KIF18A in COS-7 cells (protein)
chain: MSVTEEDLCHHMKVVVRVRPENTKEKAAGFHKVVHVVDKHILVFDPKQEEVSFFHGKKTTNQNVIKKQNKDLKFVFDAVFDETSTQSEVFEHTTKPILRSFLNGYNCTVLAYGATGAGKTHTMLGSADEPGVMYLTMLHLYKCMDEIKEEKICSTAVSYLEVYNEQIRDLLVNSGPLAVREDTQKGVVVHGLTLHQPKSSEEILHLLDNGNKNRTQHPTDMNATSSRSHAVFQIYLRQQDKTASINQNVRIAKMSLIDLAGSERASTSGAKGTRFVEGTNINRSLLALGNVINALADSKRKNQHIPYRNSKLTRLLKDSLGGNCQTIMIAAVSPSSVFYDDTYNTLKYANRAKDIKSSLKSNVLNVNNHITQYVKICNEQKAEILLLKEKLKAYEEQKAFTNENDQAKLMISNPQEKEIERFQEILNCLFQNREEIRQEYLKLEMLLKENELKSFYQQQCHKQIEMMCSEDKVEKATGKRDHRLAMLKTRRSYLEKRREEELKQFDENTNWLHRVEKEMGLLSQNGHIPKELKKDLHCHHLHLQNKDLKAQIRHMMDLACLQEQQHRQTEAVLNALLPTLRKQYCTLKEAGLSNAAFESDFKEIEHLVERKKVVVWADQTAEQPKQNDLPGISVLMTFPQLGPVQPIPCCSSSGGTNLVKIPTEKRTRRKLMPSPLKGQHTLKSPPSQSVQLNDSLSKELQPIVYTPEDCRKAFQNPSTVTLMKPSSFTTSFQAVSSNINSDNCLKMLCEVAIPHNRRKECGQEDLDSTFTICEDIKSSKCKLPEQESLPNDNKDILQRLDPSSFSTKHSMPVPSMVPSYMAMTTAAKRKRKLTSSTSNSSLTADVNSGFAKRVRQDNSSEKHLQENKPTMEHKRNICKINPSMVRKFGRNISKGNLR
modifications: left off: small tags and cut ends
notes: His-tagged MS-KIF18A expressed from pcDNA3.1-His-C-MS-KIF18A in COS-7 cells
- interaction with ERα 66 kDa (pull-down by anti-MS-KIF18A and anti-His antibodies) (ERα 66 kDa): interaction

B2: MS-KIF18A: novel kinesin KIF18A polypeptide of 898 amino acids expressed in mesenchymal stem cells, SEQ ID NO: 2 (protein, listed as Homo sapiens)
chain: MSVTEEDLCHHMKVVVRVRPENTKEKAAGFHKVVHVVDKHILVFDPKQEEVSFFHGKKTTNQNVIKKQNKDLKFVFDAVFDETSTQSEVFEHTTKPILRSFLNGYNCTVLAYGATGAGKTHTMLGSADEPGVMYLTMLHLYKCMDEIKEEKICSTAVSYLEVYNEQIRDLLVNSGPLAVREDTQKGVVVHGLTLHQPKSSEEILHLLDNGNKNRTQHPTDMNATSSRSHAVFQIYLRQQDKTASINQNVRIAKMSLIDLAGSERASTSGAKGTRFVEGTNINRSLLALGNVINALADSKRKNQHIPYRNSKLTRLLKDSLGGNCQTIMIAAVSPSSVFYDDTYNTLKYANRAKDIKSSLKSNVLNVNNHITQYVKICNEQKAEILLLKEKLKAYEEQKAFTNENDQAKLMISNPQEKEIERFQEILNCLFQNREEIRQEYLKLEMLLKENELKSFYQQQCHKQIEMMCSEDKVEKATGKRDHRLAMLKTRRSYLEKRREEELKQFDENTNWLHRVEKEMGLLSQNGHIPKELKKDLHCHHLHLQNKDLKAQIRHMMDLACLQEQQHRQTEAVLNALLPTLRKQYCTLKEAGLSNAAFESDFKEIEHLVERKKVVVWADQTAEQPKQNDLPGISVLMTFPQLGPVQPIPCCSSSGGTNLVKIPTEKRTRRKLMPSPLKGQHTLKSPPSQSVQLNDSLSKELQPIVYTPEDCRKAFQNPSTVTLMKPSSFTTSFQAVSSNINSDNCLKMLCEVAIPHNRRKECGQEDLDSTFTICEDIKSSKCKLPEQESLPNDNKDILQRLDPSSFSTKHSMPVPSMVPSYMAMTTAAKRKRKLTSSTSNSSLTADVNSGFAKRVRQDNSSEKHLQENKPTMEHKRNICKINPSMVRKFGRNISKGNLR
- association with endogenous ERα (co-immunoprecipitation) (ERα): confirmed the association
